Assay results: publication doi:10.1101/2025.11.21.689824v1, “Fluorescent Biosensor-Guided Engineering of Enzyme Cascades for Electrochemical Applications” (biorxiv, 2025)
Read-outs that look alike come from different tables or passages of the source. One block for each molecule: values may come before it.

Legend:
[1] = molecular target: T1, WT Fumarase (FumC, class II) (Escherichia coli, UniProt P05042); test: UV absorbance of fumarate, Lineweaver-Burk; type: biochemical; details: potassium phosphate buffer, 20 nM enzyme; free enzyme
T1 construct: full length, N-terminal leader […]; (His tag, T7 gene 10 leader, Xpress) in pBAD, expressed in E. coli XL1-Blue; homotetramer
T1 sequence (P05042 1-467): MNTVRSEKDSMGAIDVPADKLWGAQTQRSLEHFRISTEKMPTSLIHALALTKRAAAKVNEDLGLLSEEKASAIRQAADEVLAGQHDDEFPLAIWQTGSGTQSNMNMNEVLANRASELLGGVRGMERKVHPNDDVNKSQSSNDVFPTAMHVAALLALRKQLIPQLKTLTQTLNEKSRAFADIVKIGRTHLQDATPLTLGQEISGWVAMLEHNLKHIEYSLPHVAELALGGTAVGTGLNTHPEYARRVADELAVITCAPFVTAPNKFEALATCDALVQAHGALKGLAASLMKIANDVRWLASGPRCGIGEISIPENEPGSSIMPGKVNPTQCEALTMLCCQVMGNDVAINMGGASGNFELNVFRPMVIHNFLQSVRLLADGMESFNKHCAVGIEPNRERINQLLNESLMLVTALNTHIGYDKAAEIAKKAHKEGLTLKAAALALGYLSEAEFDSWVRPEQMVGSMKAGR

[2] = test system: T2, Single-chain E. coli Fumarase #2; details: potassium phosphate buffer, 1 µM enzyme
T2 construct: gene fumC

[3] = test system: H23 fusion (MDH-scaffolded KKRQKKKRK linker-fumarase); details: fumarase component; potassium phosphate buffer, 20 nM enzyme; free enzyme
[4] = test system: V0 fusion (MDH-G4SG4S-fumarase); details: fumarase component; potassium phosphate buffer, 20 nM enzyme; free enzyme
[5] = test system: Single-chain T. thermophilus Fumarase #1 H23 MDH Linkage (T1-H23); details: fumarase component; potassium phosphate buffer, 1 µM enzyme
[6] = test system: T3, Single-chain T. thermophilus Fumarase #1; details: potassium phosphate buffer, 1 µM enzyme
T3 construct: gene fumC

[7] = test system: Single-chain T. thermophilus Fumarase #1 V0 MDH Linkage (T1-V0); details: fumarase component; potassium phosphate buffer, 1 µM enzyme
[8] = test system: V0 fusion (MDH-G4SG4S-fumarase); details: MDH component, fumarase part inactivated; 50 mM NAD+, potassium phosphate buffer, 1 nM enzyme
[9] = test system: Single-chain T. thermophilus Fumarase #1 V0 MDH Linkage (T1-V0); details: MDH component; 50 mM NAD+, potassium phosphate buffer; not told whether the fumarase part was inactivated
[10] = test system: H23 fusion (MDH-scaffolded KKRQKKKRK linker-fumarase); details: MDH component, fumarase part inactivated; 50 mM NAD+, potassium phosphate buffer, 1 nM enzyme
[11] = test system: Single-chain T. thermophilus Fumarase #1 H23 MDH Linkage (T1-H23); details: MDH component; 50 mM NAD+, potassium phosphate buffer; not told whether the fumarase part was inactivated
[12] = molecular target: V0 fusion (MDH-G4SG4S-fumarase); test: inhibition of fumarate to NADH cascade, Lineweaver-Burk; type: biochemical, Escherichia coli; details: 500 µM NAD+, fumarate 0.25-8 mM, 100 mM potassium phosphate, 0.5 nM enzyme; competitive at the MDH part; cascade read-out; read-out: apparent Ki
Method: inhibition of fumarate to NADH cascade, Lineweaver-Burk on V0 fusion (MDH-G4SG4S-fumarase) | the apparent inhibition constant (Ki) of citrate on the enzymatic cascade was determined

[13] = molecular target: H23 fusion (MDH-scaffolded KKRQKKKRK linker-fumarase); test: as above; type: biochemical, Escherichia coli; details: 500 µM NAD+, fumarate 0.25-8 mM, 100 mM potassium phosphate, 0.5 nM enzyme; competitive at the MDH part; cascade read-out; read-out: apparent Ki

SMILES: O=C(O)/C=C/C(=O)O [fumarate]
- Km [1]: 443 ± 101 µM
- Km [2]: 758 ± 192 µM
- Km [3]: 934 ± 66 µM
- Km [4]: 759 ± 51 µM
- Km [5]: 972 ± 62 µM
- Km [6]: 809 ± 59 µM
- Km [7]: 969 ± 61 µM

- Km [8]: 1210 ± 70 µM
- Km [9]: 1050 ± 390 µM
- Km [10]: 1220 ± 60 µM
- Km [11]: 1150 ± 370 µM
SMILES: O=C(O)C[C@H](O)C(=O)O [malate]

SMILES: O=C(O)CC(O)(CC(=O)O)C(=O)O [citrate]
- Ki [12]: 1.65 ± 0.15 mM
- Ki [13]: 8.57 ± 0.71 mM
